According to patent publication US12083093B2, “Composition for preventing or treating cellular senescence-related diseases comprising salinomycin as effective component” (RESEARCH COOPERATION FOUNDATION OF YEUNGNAM UNIVERSITY, priority 2018, dated 2024):

System: replicative senescent human fibroblasts (HDF)
Assay: SAβG activity staining, replicative senescent human fibroblasts
Type: cell-based
Settings: increasing concentration of salinomycin, senescent cells; FIG. 2A, 2B
Description: After dispensing 2×10^5 cells in a 100 mm culture dish, they were cultured in a 37° C., 5% CO2 incubator. When the cells grew to 80-90% in the culture dish, the cells were removed by treatment with trypsin-EDTA, and the number of cells was measured, and the cell population doubling time (PDT) was measured.
By successively subculturing the cells in the same process as described above, replication aging was induced. PDT of young fibroblasts was 36 hours, PDT of replicative senescent fibroblasts was 12 days, PDT of young vascular endothelial cells was 24 hours, and PDT of replicative senescent vascular endothelial cells was 7 days.
After each sample was dissolved in DMSO, young cells, replicative senescent cells and senescent cells in which premature aging was induced by treating with doxorubicin were treated with 100 nM salinomycin, 100 nM rapamycin, 100 nM ABT263. After incubation for 4 days in a 37° C., 5% CO2 incubator, the degree of cell survival was confirmed by CCK-8 analysis, the degree of cellular aging was confirmed by senescence-associated β-galactosidase (SAβG) staining, p53 and p16 protein expression analysis.
The cells were washed with 1× phosphate buffer solution, and fixed with a phosphate buffer solution containing 3.7% (v/v) paraformaldehyde. […]

`CC[C@@H](C(=O)[C@@H](C)[C@@H](O)[C@H](C)[C@@H]1O[C@@H]([C@@H](CC)C(=O)O)CC[C@@H]1C)[C@H]1O[C@]2(C=C[C@@H](O)[C@]3(CC[C@@](C)([C@H]4CC[C@](O)(CC)[C@H](C)O4)O3)O2)[C@H](C)C[C@@H]1C` [salinomycin] was tested, and the SAβG activity was “decreased in senescent cells in a concentration-dependent manner”.
